“And” between values parts separate entries of the source, which are not always exact repeats. Identical values can stand only once.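 Assay format: 96-well plates, 48-hour exposure. The concentration for 50% growth inhibition is given as GI50. Definition used: TGI = concentration required for complete inhibition of growth.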
Assays:
Assay in all cases: NCI-60 cell line screen, 48 h
CCRF-CEM leukemia = tested on: CCRF-CEM leukemia
TK-10 renal = tested on: TK-10 renal
HL-60(TB) leukemia = tested on: HL-60(TB) leukemia
SF-268 CNS = tested on: SF-268 CNS
SF-295 CNS = tested on: SF-295 CNS
SK-OV-3 ovarian = tested on: SK-OV-3 ovarian
COLO 205 colon = tested on: COLO 205 colon
KM12 colon = tested on: KM12 colon
ACHN renal = tested on: ACHN renal
OVCAR-4 ovarian = tested on: OVCAR-4 ovarian
MDA-MB-231 breast = tested on: MDA-MB-231 breast
BT-549 breast = tested on: BT-549 breast
RPMI-8226 leukemia = tested on: RPMI-8226 leukemia
SW-620 colon = tested on: SW-620 colon
NCI-H226 lung = tested on: NCI-H226 lung
HT29 colon = tested on: HT29 colon
U251 CNS = tested on: U251 CNS
NCI-H522 lung = tested on: NCI-H522 lung
UACC-257 melanoma = tested on: UACC-257 melanoma
SK-MEL-2 melanoma = tested on: SK-MEL-2 melanoma
PC-3 prostate = tested on: PC-3 prostate
UACC-62 melanoma = tested on: UACC-62 melanoma
MDA-MB-435 = tested on: MDA-MB-435
OVCAR-3 ovarian = tested on: OVCAR-3 ovarian
HS 578T breast = tested on: HS 578T breast
SK-MEL-5 melanoma = tested on: SK-MEL-5 melanoma
MCF7 breast = tested on: MCF7 breast
NCI/ADR-RES ovarian = tested on: NCI/ADR-RES ovarian
A498 renal = tested on: A498 renal
OVCAR-5 ovarian = tested on: OVCAR-5 ovarian
SF-539 CNS = tested on: SF-539 CNS
HCT-116 colon = tested on: HCT-116 colon
EKVX NSCLC = tested on: EKVX NSCLC
SNB-19 CNS = tested on: SNB-19 CNS
MOLT-4 leukemia = tested on: MOLT-4 leukemia
SR leukemia = tested on: SR leukemia
A549 NSCLC = tested on: A549 NSCLC
UO-31 renal = tested on: UO-31 renal
HCC-2998 colon = tested on: HCC-2998 colon
NCI-H460 lung = tested on: NCI-H460 lung
RXF 393 renal = tested on: RXF 393 renal
786-0 renal = tested on: 786-0 renal
MALME-3M melanoma = tested on: MALME-3M melanoma
T-47D breast = tested on: T-47D breast
CAKI-1 renal = tested on: CAKI-1 renal
DU-145 prostate = tested on: DU-145 prostate
NCI-H23 lung = tested on: NCI-H23 lung
OVCAR-8 ovarian = tested on: OVCAR-8 ovarian
M14 melanoma = tested on: M14 melanoma
SN12C renal = tested on: SN12C renal
SK-MEL-28 melanoma = tested on: SK-MEL-28 melanoma
K-562 leukemia = tested on: K-562 leukemia
HOP-62 NSCLC = tested on: HOP-62 NSCLC
HCT-15 colon = tested on: HCT-15 colon
HOP-92 NSCLC = tested on: HOP-92 NSCLC
IGROV1 ovarian = tested on: IGROV1 ovarian
LOX IMVI melanoma = tested on: LOX IMVI melanoma
SNB-75 CNS = tested on: SNB-75 CNS

CO[C@@H](C(=O)N1Cc2[nH]nc(NC(=O)c3ccc(N4CCN(C)CC4)cc3)c2C1)c1ccccc1
TGI (CCRF-CEM leukemia): > 100000 nM | GI50 (TK-10 renal): 3280 nM and 2780 nM | TGI (TK-10 renal): 67200 nM and > 10000 nM | GI50 (HL-60(TB) leukemia): 3250 nM and 4350 nM | TGI (HL-60(TB) leukemia): 28300 nM and > 10000 nM | GI50 (SF-268 CNS): 1060 nM and 889 nM | TGI (SF-268 CNS): 8080 nM and 4640 nM | GI50 (SF-295 CNS): 715 nM and 146 nM | TGI (SF-295 CNS): > 100000 nM | GI50 (SK-OV-3 ovarian): 591 nM and 863 nM | TGI (SK-OV-3 ovarian): > 41200 nM | GI50 (COLO 205 colon): 48.3 nM and 39.5 nM | TGI (COLO 205 colon): 1030 nM and 625 nM | GI50 (KM12 colon): 216 nM and 125 nM | TGI (KM12 colon): 7090 nM and > 8180 nM | GI50 (ACHN renal): 4970 nM and 6660 nM | TGI (ACHN renal): > 69600 nM | GI50 (OVCAR-4 ovarian): 610 nM and 2820 nM | TGI (OVCAR-4 ovarian): > 52400 nM | GI50 (MDA-MB-231 breast): 562 nM and 142 nM | TGI (MDA-MB-231 breast): > 70500 nM | GI50 (BT-549 breast): 809 nM and 1390 nM | TGI (BT-549 breast): 5900 nM and > 10000 nM | GI50 (RPMI-8226 leukemia): 7040 nM and 5810 nM | TGI (RPMI-8226 leukemia): > 52500 nM | GI50 (SW-620 colon): 314 nM and 129 nM | TGI (SW-620 colon): 22300 nM and > 10000 nM | GI50 (NCI-H226 lung): 360 nM and 80.4 nM | TGI (NCI-H226 lung): 49300 nM and > 8910 nM | GI50 (HT29 colon): 713 nM and 658 nM | TGI (HT29 colon): 2650 nM and 8970 nM | GI50 (U251 CNS): 2160 nM and 1510 nM | TGI (U251 CNS): > 50100 nM | GI50 (NCI-H522 lung): 469 nM and 163 nM | TGI (NCI-H522 lung): 45500 nM and > 10000 nM | GI50 (UACC-257 melanoma): 613 nM and 1060 nM | TGI (UACC-257 melanoma): 18900 nM and > 10000 nM | GI50 (SK-MEL-2 melanoma): 4330 nM and 6860 nM | TGI (SK-MEL-2 melanoma): 33100 nM and > 10000 nM | GI50 (PC-3 prostate): 1530 nM and 2530 nM | TGI (PC-3 prostate): 40700 nM and > 10000 nM | GI50 (UACC-62 melanoma): 548 nM and 482 nM | TGI (UACC-62 melanoma): 50500 nM and > 10000 nM | GI50 (MDA-MB-435): 2690 nM and 3080 nM | TGI (MDA-MB-435): 17400 nM and > 10000 nM | GI50 (OVCAR-3 ovarian): 866 nM and 1130 nM | TGI (OVCAR-3 ovarian): > 87000 nM | GI50 (HS 578T breast): 1370 nM and 232 nM | TGI (HS 578T breast): 7920 nM and 859 nM | GI50 (SK-MEL-5 melanoma): 1650 nM and 2760 nM | TGI (SK-MEL-5 melanoma): 12100 nM and > 10000 nM | GI50 (MCF7 breast): 104 nM and 73.6 nM | TGI (MCF7 breast): 23100 nM and > 10000 nM | GI50 (NCI/ADR-RES ovarian): > 100000 nM | TGI (NCI/ADR-RES ovarian): > 100000 nM | GI50 (A498 renal): 69.6 nM and 317 nM | TGI (A498 renal): 1320 nM and 3620 nM | GI50 (OVCAR-5 ovarian): 1350 nM and 850 nM | TGI (OVCAR-5 ovarian): > 68800 nM | GI50 (SF-539 CNS): 459 nM and 105 nM | TGI (SF-539 CNS): 12000 nM and 5630 nM | GI50 (HCT-116 colon): 117 nM and 87.9 nM | TGI (HCT-116 colon): 6670 nM and > 8710 nM | GI50 (EKVX NSCLC): 1730 nM and 1890 nM | TGI (EKVX NSCLC): 37600 nM and > 10000 nM | GI50 (SNB-19 CNS): 4020 nM and 2930 nM | TGI (SNB-19 CNS): > 100000 nM | GI50 (MOLT-4 leukemia): 12600 nM and 2300 nM | TGI (MOLT-4 leukemia): > 81100 nM | GI50 (SR leukemia): 56.9 nM and 39.5 nM | TGI (SR leukemia): > 35600 nM | GI50 (A549 NSCLC): 419 nM and 158 nM | TGI (A549 NSCLC): > 69600 nM | GI50 (UO-31 renal): 9330 nM and 3670 nM | TGI (UO-31 renal): 33800 nM and > 10000 nM | GI50 (HCC-2998 colon): 525 nM and 503 nM | TGI (HCC-2998 colon): 46000 nM and > 10000 nM | GI50 (NCI-H460 lung): 224 nM and 99.7 nM | TGI (NCI-H460 lung): 18000 nM and > 10000 nM | GI50 (RXF 393 renal): 593 nM and 312 nM | TGI (RXF 393 renal): 3720 nM and 2090 nM | GI50 (786-0 renal): 2550 nM and 2000 nM | TGI (786-0 renal): 31400 nM and > 10000 nM | GI50 (MALME-3M melanoma): 509 nM and 4410 nM | TGI (MALME-3M melanoma): 22900 nM and > 10000 nM | GI50 (T-47D breast): 792 nM and 538 nM | TGI (T-47D breast): 69300 nM and > 10000 nM | GI50 (CAKI-1 renal): 19600 nM and > 10000 nM | TGI (CAKI-1 renal): > 91400 nM | GI50 (DU-145 prostate): 2020 nM and 1930 nM | TGI (DU-145 prostate): 17900 nM and > 10000 nM | GI50 (NCI-H23 lung): 764 nM and 609 nM | TGI (NCI-H23 lung): 23700 nM and > 10000 nM | GI50 (OVCAR-8 ovarian): 2270 nM and 1840 nM | TGI (OVCAR-8 ovarian): > 100000 nM | GI50 (M14 melanoma): 3730 nM and 2340 nM | TGI (M14 melanoma): 23400 nM and > 10000 nM | TGI (SN12C renal): > 100000 nM | GI50 (SK-MEL-28 melanoma): 3110 nM and 2720 nM | TGI (SK-MEL-28 melanoma): 20900 nM and > 10000 nM | GI50 (K-562 leukemia): 106 nM and 54.7 nM | TGI (K-562 leukemia): > 100000 nM | GI50 (HOP-62 NSCLC): 1040 nM and 585 nM | TGI (HOP-62 NSCLC): 19300 nM and > 10000 nM | GI50 (HCT-15 colon): 18800 nM and > 10000 nM | TGI (HCT-15 colon): > 100000 nM | GI50 (HOP-92 NSCLC): 153 nM and 63.9 nM | TGI (HOP-92 NSCLC): 731 nM and 1240 nM | GI50 (IGROV1 ovarian): 282 nM and 62.4 nM | TGI (IGROV1 ovarian): 3010 nM and 2950 nM | GI50 (LOX IMVI melanoma): 255 nM and 82.5 nM | TGI (LOX IMVI melanoma): 2050 nM and 1820 nM | GI50 (SNB-75 CNS): 215 nM | TGI (SNB-75 CNS): 1660 nM
